Converted amounts (≈) assume the structure as drawn.

What all share (assay type): functional, cell-based
Experiment [1] deals with KB. Nature of the experiment: Cytotoxicity against human KB cells.
Experiment [2] is described as follows: Cytotoxicity against human NSCLC-N6-L16 cells.
The subject of experiment [3] is P388. Nature of the experiment: Cytotoxicity against mouse P388 cells.

The IC50 is the concentration needed to halve the response being measured. A low value points to greater potency in that assay. Take `CO[C@@H]1C[C@H](OC(N)=O)[C@@H]2C=C[C@@H]3/C=C(C)/C=C/[C@@H](C)[C@H](/C(C)=C/[C@@H](C)NC(C)=O)OC(=O)/C=C/C=C(C)\C=C\[C@]3(C)[C@@H]2C1` [SUPERSTOLIDE B]: the figures for the concentration for half-maximal inhibition (IC50) in experiment [1], in experiment [2] and in experiment [3] were 5 ng/mL (≈ 8.24 nM), 39 ng/mL (≈ 64.3 nM) and 3 ng/mL (≈ 4.94 nM), respectively.

The values are drawn from ChEMBL document CHEMBL1150070, “A novel cytotoxic macrolide, superstolide B, related to superstolide A, from the New Caledonian marine sponge Neosiphonia superstes” (J Nat Prod, 1994).
